Assay results as given in US9745328B2, “Flap modulators” (JANSSEN PHARMACEUTICA NV, priority 2013, dated 2017).
Counter-ions that a name gives are not always drawn.

target: human FLAP (Homo sapiens (Human), UniProt P20292); assay: FLAP binding assay (HTRF format); details: Table 6 (additional runs), human FLAP wild type
Outline: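 Binding of compounds to FLAP read out as HTRF ratio. Values are the mean of two assay plates, each sample run in duplicate per plate.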

Chain of human FLAP (P20292 whole entry): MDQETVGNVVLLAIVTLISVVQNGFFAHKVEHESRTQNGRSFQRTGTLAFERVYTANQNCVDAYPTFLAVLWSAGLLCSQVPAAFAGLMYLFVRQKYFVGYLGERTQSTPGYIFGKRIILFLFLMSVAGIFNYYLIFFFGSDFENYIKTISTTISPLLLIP

Ki | SMILES
127 nM | Nc1ncc(-c2ccc(-c3ccccc3S(=O)(=O)N[C@H]3CCNC3=O)cc2F)cn1 [Example 263, 4′-(2-Aminopyrimidin-5-yl)-3′-fluoro-N-[(3S)-2-oxopyrrolidin-3-yl]biphenyl-2-sulfonamide]
2.4 nM | Nc1cnc(-c2ccc(-c3ccccc3Sc3ncccn3)cc2F)cn1 [Example 213, 5-[3-Fluoro-2′-(pyrimidin-2-ylsulfanyl)biphenyl-4-yl]pyrazin-2-amine hydrochloride]
2.4 nM | Nc1cnc(-c2ccc(-c3ccccc3CSc3ccc(N)nn3)cc2F)cn1 [Example 240, 6-(((4′-(5-aminopyrazin-2-yl)-3′-fluoro-[1,1′-biphenyl]-2-yl)methyl)thio)pyridazin-3-amine hydrochloride]
133 nM | Nc1ncc(-c2ccc(-c3ccccc3S(=O)(=O)N[C@@H]3CCCNC3=O)cc2F)cn1 [Example 266, 4′-(2-Aminopyrimidin-5-yl)-3′-fluoro-N-[(3R)-2-oxopiperidin-3-yl]biphenyl-2-sulfonamide trifluoroacetic acid salt]
1.9 nM | CN(C)S(=O)(=O)c1ccccc1-c1ccc(-c2cnc3[nH]ccc3n2)c(F)c1 [Example 370, 3′-Fluoro-N,N-dimethyl-4′-(5H-pyrrolo[2,3-b]pyrazin-2-yl)biphenyl-2-sulfonamide]
2.2 nM | Nc1cnc(-c2ccc(-c3ccccc3Sc3nccc(N)n3)cc2F)cn1 [Example 216, 2-{1,4′-(5-Aminopyrazin-2-yl)-3′-fluorobiphenyl-2-yl]sulfanyl}pyrimidin-4-amine hydrochloride]
3.3 nM | CC(C)(CO)NS(=O)(=O)c1ccccc1-c1ccc(-c2cnc(N)nc2)c(F)c1 [Example 280, 4′-(2-.Aminopyrimidin-5-yl)-3′-fluoro-N-(2-hydroxy-1,1-dimethylethyl)biphenyl-2-sulfonamide trifluoroacetic acid salt]
8.9 nM | Nc1ncc(-c2ccc(-c3ccccc3S(=O)(=O)N[C@H]3CCCC[C@@H]3O)cc2F)cn1 (racemic) [Example 260, racemic (trans) 4′-(2-Aminopyrimidin-5-yl)-3′-fluoro-N-[(trans)-2-hydroxycyclohexyl]biphenyl-2-sulfonamide]
26.9 nM | CC(C)(O)CNS(=O)(=O)c1ccccc1-c1ccc(-c2cnc(N)nc2)c(F)c1 [Example 272, 4′-(2-Aminopyrimidin-5-y)-3′-fluoro-N-(2-hydroxy-2-methylpropyl)biphenyl-2-sulfonamide trifluoroacetic acid salt]
1.1 nM | CC(CO)NS(=O)(=O)c1ccccc1-c1ccc(-c2cnc3[nH]ccc3n2)c(F)c1 (stereo in doubt) [Example 380, 3′-Fluoro-N-[(1S)-2-hydroxy-1-methylethyl]4′-(5H-pyrrolo[2,3-b]pyrazin-2-yl)biphenyl-2-sulfonamide]
0.6 nM | C[C@H](CO)NS(=O)(=O)c1ccccc1-c1ccc(-c2cnc3[nH]ccc3c2)c(F)c1 [Example 363, 3′-Fluoro-N-[(1R)-2-hydroxy-1-methylethyl]-4′-(1H-pyrrolo[2,3-b]pyridin-5-yl)biphenyl-2-sulfonamide]
1.4 nM | CC1(NS(=O)(=O)c2ccccc2-c2ccc(-c3ccc(N)nc3)c(F)c2)CCC1 [Example 353, 4′-(6-aminopyridin-3-yl)-3′-fluoro-N-(1-methylcyclobutyl)-[1,1′-biphenyl]-2-sulfonamide]

Further lines, the compound ahead of its results:

SMILES | Ki
CC(C)(C)NS(=O)(=O)c1ccccc1-c1ccc(-c2cnc(N)cn2)c(F)c1 [Example 4, 4′-(5-Aminopyrazin-2-yl)-N-(tert-butyl)-3′-fluoro-[1,1′-biphenyl]-2-sulfonamide] | 0.4 nM
Nc1cnc(-c2ccc(-c3ccccc3S(=O)(=O)N[C@H]3CC[C@H](O)CC3)cc2F)cn1 [Example 110, trans 4′-(5-Aminopyrazin-2-yl)-3′-fluoro-N-(4-hydroxycyclohexyl)biphenyl-2-sulfonamide] | 2.6 nM
N#CCCN1CCN(S(=O)(=O)c2ccccc2-c2ccc(-c3cnc(N)cn3)c(F)c2)CC1 [Example 174, 3-(4-{[4′-(5-Aminopyrazin-2-yl)-3′-fluoroblphenyl-2-yl]sulfonyl}piperazin-1-yl)propanenitrile] | 2.4 nM
Nc1cnc(-c2ccc(-c3ccccc3S(=O)(=O)N(CCO)C3CCCCC3)cc2F)cn1 [Example 136, 4′-(5-Aminopyrazin-2-yl)-N-cyclohexyl-3′-fluoro-N-(2-hydroxyethyl)biphenyl-2-sulfonamide] | 0.5 nM
Nc1cnc(-c2ccc(-c3ccccc3S(=O)(=O)N[C@H](c3ccccc3)C(F)(F)F)cc2F)cn1 [Example 18] | 1.8 nM
Nc1cnc(-c2ccc(-c3ccccc3S(=O)(=O)N[C@H](CO)c3ccccc3)cc2F)cn1 [Example 81, 4′-(5-Aminopyrazin-2-yl)-3′-fluoro-N-[(1S)-2-hydroxy-1-phenylethyl]biphenyl-2-sulfonamide] | 6.4 nM
CCN(CC)S(=O)(=O)c1ccccc1-c1ccc(-c2cnc(N)cn2)c(F)c1 [Example 47, 4′-(5-Aminopyrazin-2-yl)-N,N-diethyl-3′-fluorobiphenyl-2-sulfonamide] | 1.6 nM
CC[C@H](CO)NS(=O)(=O)c1ccccc1-c1ccc(-c2cnc(N)cn2)c(F)c1 [Example 86, 4′-(5-Aminopyrazin-2-yl)-3′-fluoro-N-[(1R)-1-(hydroxymethyl)propyl]biphenyl-2-sulfonamide] | 2.6 nM
C[C@H](NS(=O)(=O)c1ccccc1-c1ccc(-c2cnc(N)cn2)c(F)c1)C(O)c1ccccc1 (stereo in doubt) [Example 83, 4′-(5-Aminopyrazin-2-yl)-3′-fluoro-N-[(1S,2R)-2-hydroxy-1-methyl-2-phenylethyl]biphenyl-2-sulfonamide] | 0.7 nM
Nc1cnc(-c2ccc(-c3ccccc3S(=O)(=O)N3CC[C@H](O)C3)cc2F)cn1 [Example 184, (3S)-1-{[4′-(5-Aminopyrazin-2-yl)-3′-fluorobiphenyl-2-yl]sulfonyl}pyrrolidin-3-ol] | 8.9 nM
CC(C)[C@@H](CO)NS(=O)(=O)c1ccccc1-c1ccc(-c2cnc(N)cn2)c(F)c1 [Example 148, (S)-4′-(5-aminopyrazin-2-yl)-3′-fluoro-N-(1-hydroxy-3-methylbutan-2-yl)-[1,1′-biphenyl]-2-sulfonamide] | 2.5 nM
Nc1cnc(-c2ccc(-c3ccccc3S(=O)(=O)NC3CC4CCC3C4)cc2F)cn1 (racemic) [Example 10, (racemic)-(endo)-4′-(5-Aminopyrazin-2-yl)-N-bicyclo[2.2.1]hept-2-yl-3′-fluorobiphenyl-2-sulfonamide racemic] | 2.7 nM

same assay, conditions: human FLAP wild type, Table 6 (additional runs)

Ki | SMILES
0.5 nM | Cc1nc(-c2ccc(-c3ccccc3S(=O)(=O)NC(C)(C)C)cc2F)cnc1N [Example 445, 4′-(5-Amino-6-methylpyrazin-2-yl)-N-tert-butyl-3′-fluorobiphenyl-2-sulfonamide]
141 nM | Nc1cnc(-c2ccc(-c3ccc(Br)cc3F)cc2F)cn1 [Example 696, 5-(4′-Bromo-2′,3-difluoroblphenyl-4-yl)pyrazin-2-amine]
1.3 nM | Nc1nccc(Oc2ccccc2-c2ccc(-c3cnc4[nH]ccc4c3)c(F)c2)n1 [Example 523, 4-{[3′-Fluoro-4′-(1H-pyrrolo[2,3-b]pyridin-5-yl)biphenyl-2-yl]oxy}pyrimidin-2-amine]
1.1 nM | COc1nc(-c2ccc(-c3ccccc3S(=O)(=O)NC(C)(C)C)cc2F)cnc1N [Example 433, 4′-(5-Amino-6-methoxypyrazin-2-yl)-N-tert-butyl-3′-fluorobiphenyl-2-sulfonamide]
